Measured values from patent US4684664A, “Derivatives of β-(4-isocyano-1,2,3,4-diepoxycyclopentyl) acrylic acid” (Kureha Kagaku Kogyo Kabushiki Kaisha, priority 1984, dated 1987).
In brackets after ≈: the same amount, converted by molar mass.

Legend:
Assay type in all cases: cell-based
[1] = system: Staphylococcus aureus FDA 209PJc-1; assay: Antibacterial activity, agar-dilution MIC, organism No. 1; conditions: Staphylococcus aureus, FDA209PJC1; Organism No. 1, bouillon-agar; read-out: Minimum Inhibitory Concentration
Text: (§1) Agar-dilution method was used for determination of the antibacterial activity and antifungal activity while using bouillon-agar culture medium, and the minimum inhibitory concentration of the specimen was expressed by μg/ml of the culture medium.

[2] = system: Staphylococcus aureus Terajima; assay: Antibacterial activity, agar-dilution MIC, organism No. 2; conditions: Staphylococcus aureus; Organism No. 2, bouillon-agar; read-out: Minimum Inhibitory Concentration
Text: as §1

[3] = system: Staphylococcus aureus MS 353; assay: Antibacterial activity, agar-dilution MIC, organism No. 3; conditions: Staphylococcus aureus, MS353; Organism No. 3, bouillon-agar; read-out: Minimum Inhibitory Concentration
Text: as §1

[4] = system: Streptococcus pyogenes Cook; assay: Antibacterial activity, agar-dilution MIC, organism No. 4; conditions: Streptococcus pyogenes; Organism No. 4, bouillon-agar; read-out: Minimum Inhibitory Concentration
Text: as §1

[5] = system: Escherichia coli NIHJ-JC-2; assay: Antibacterial activity, agar-dilution MIC, organism No. 5; conditions: Escherichia coli, NIHJJC2; Organism No. 5, bouillon-agar; read-out: Minimum Inhibitory Concentration
Text: as §1

[6] = system: Escherichia coli K12 C600 IAM 1264; assay: Antibacterial activity, agar-dilution MIC, organism No. 6; conditions: Escherichia coli, IAM1264; Organism No. 6, bouillon-agar; read-out: Minimum Inhibitory Concentration
Text: as §1

[7] = system: Klebsiella pneumoniae PCI-602; assay: Antibacterial activity, agar-dilution MIC, organism No. 7; conditions: Klebsiella pneumoniae, PCI602; Organism No. 7, bouillon-agar; read-out: Minimum Inhibitory Concentration
Text: as §1

[8] = system: Salmonella typhimurium IID 971; assay: Antibacterial activity, agar-dilution MIC, organism No. 8; conditions: Salmonella enterica; Organism No. 8, bouillon-agar; read-out: Minimum Inhibitory Concentration
Text: as §1

Salmonella typhi 901 = assay: Antibacterial activity, agar-dilution MIC, organism No. 9; conditions: Salmonella enterica, TYPHI, read-out: Minimum Inhibitory Concentration
Text: as §1

[9] = system: Salmonella paratyphi-A 1015; assay: Antibacterial activity, agar-dilution MIC, organism No. 10; conditions: Salmonella enterica, PARATYPHI, read-out: Minimum Inhibitory Concentration
Text: as §1

[10] = system: Salmonella shottmuelleri 8006; assay: Antibacterial activity, agar-dilution MIC, organism No. 11; conditions: Salmonella, 8006; Organism No. 11, bouillon-agar; read-out: Minimum Inhibitory Concentration
Text: as §1

[11] = system: Salmonella enteritidis G 14; assay: Antibacterial activity, agar-dilution MIC, organism No. 12; conditions: Salmonella enterica, ENTERITIDIS; Organism No. 12, bouillon-agar; read-out: Minimum Inhibitory Concentration
Text: as §1

[12] = system: Bacillus subtilis ATCC 6633; assay: Antibacterial activity, agar-dilution MIC, organism No. 14; conditions: Bacillus subtilis, ATCC6633; Organism No. 14, bouillon-agar; read-out: Minimum Inhibitory Concentration
Text: as §1

[13] = system: Pseudomonas aeruginosa IFO 3445; assay: Antibacterial activity, agar-dilution MIC, organism No. 15; conditions: Pseudomonas aeruginosa, IFO3445; Organism No. 15, bouillon-agar; read-out: Minimum Inhibitory Concentration
Text: as §1

[14] = system: Pseudomonas aeruginosa NCTC 10490; assay: Antibacterial activity, agar-dilution MIC, organism No. 16; conditions: Pseudomonas aeruginosa, NCTC10490; Organism No. 16, bouillon-agar; read-out: Minimum Inhibitory Concentration
Text: as §1

[15] = system: Pseudomonas aeruginosa PAO 1; assay: Antibacterial activity, agar-dilution MIC, organism No. 17; conditions: Pseudomonas aeruginosa, PAO1; Organism No. 17, bouillon-agar; read-out: Minimum Inhibitory Concentration
Text: as §1

[16] = system: Proteus morganii IFO 3848; assay: Antibacterial activity, agar-dilution MIC, organism No. 18; conditions: Morganella morganii, IFO3848; Organism No. 18, bouillon-agar; read-out: Minimum Inhibitory Concentration
Text: as §1

[17] = system: Proteus mirabilis IFO 3849; assay: Antibacterial activity, agar-dilution MIC, organism No. 19; conditions: Proteus mirabilis, IFO3849; Organism No. 19, bouillon-agar; read-out: Minimum Inhibitory Concentration
Text: as §1

Proteus vulgaris OX-19 = assay: Antibacterial activity, agar-dilution MIC, organism No. 20; conditions: Proteus vulgaris, OX19; Organism No. 20, bouillon-agar; read-out: Minimum Inhibitory Concentration
Text: as §1

Proteus vulgaris HX-19 = assay: Antibacterial activity, agar-dilution MIC, organism No. 21; conditions: Proteus vulgaris, HX19; Organism No. 21, bouillon-agar; read-out: Minimum Inhibitory Concentration
Text: as §1

[18] = system: Proteus rettgeri IFO 3850; assay: Antibacterial activity, agar-dilution MIC, organism No. 22; conditions: Providencia rettgeri, IFO3850; Organism No. 22, bouillon-agar; read-out: Minimum Inhibitory Concentration
Text: as §1

[19] = system: Enterobacter aerogenes ATCC 13048; assay: Antibacterial activity, agar-dilution MIC, organism No. 23; conditions: Klebsiella aerogenes, ATCC13048; Organism No. 23, bouillon-agar; read-out: Minimum Inhibitory Concentration
Text: as §1

Enterobacter cloacae 963 = assay: Antibacterial activity, agar-dilution MIC, organism No. 24; conditions: Enterobacter cloacae, 963; Organism No. 24, bouillon-agar; read-out: Minimum Inhibitory Concentration
Text: as §1

[20] = system: Micrococcus luteus ATCC 9341; assay: Antibacterial activity, agar-dilution MIC, organism No. 25; conditions: Micrococcus luteus, ATCC9341; Organism No. 25, bouillon-agar; read-out: Minimum Inhibitory Concentration
Text: as §1

[21] = system: Streptococcus pyogenes IFO 3340; assay: Antibacterial activity, agar-dilution MIC, organism No. 26; conditions: Streptococcus pyogenes, IFO3340; Organism No. 26, bouillon-agar; read-out: Minimum Inhibitory Concentration
Text: as §1

[22] = system: Streptococcus faecium IFO 3826; assay: Antibacterial activity, agar-dilution MIC, organism No. 27; conditions: Enterococcus faecium, IFO3826; Organism No. 27, bouillon-agar; read-out: Minimum Inhibitory Concentration
Text: as §1

[23] = system: Mycoplasma pneumoniae IID817; assay: Antimycoplasmal activity, MIC by phenol red colour change, organism No. 28; conditions: Mycoplasma, IID817; Organism No. 28, PPLO broth + 1% glucose, 37° C.; read-out: Minimum Inhibitory Concentration (MIC)
Protocol: Mycoplasma pneumoniae IID817 was used as the test microorganism in a culture medium prepared by adding 1% of glucose to "PPLO broth (manufactured by Difco Co.) liquid culture medium" at 37° C. with phenol red as an indicator, thereby culturing the test microorganism.

[24] = system: Candida albicans IAM 4905; assay: Antifungal activity, agar-dilution MIC, organism No. 29; conditions: Candida albicans, IAM4905; Organism No. 29, bouillon-agar; read-out: Minimum Inhibitory Concentration
Text: as §1

[25] = system: Aspergillus niger IFO 6342; assay: Antifungal activity, agar-dilution MIC, organism No. 30; conditions: Aspergillus niger, IFO6342; Organism No. 30, bouillon-agar; read-out: Minimum Inhibitory Concentration
Text: as §1

SMILES	MIC [1] [µg/mL]	MIC [2] [µg/mL]	MIC [3] [µg/mL]	MIC [4] [µg/mL]	MIC [5] [µg/mL]	MIC [6] [µg/mL]	MIC [7] [µg/mL]	MIC [8] [µg/mL]	MIC (Salmonella typhi 901) [µg/mL]	MIC [9] [µg/mL]	MIC [10] [µg/mL]	MIC [11] [µg/mL]	MIC [12] [µg/mL]	MIC [13] [µg/mL]	MIC [14] [µg/mL]	MIC [15] [µg/mL]	MIC [16] [µg/mL]	MIC [17] [µg/mL]	MIC (Proteus vulgaris OX-19) [µg/mL]	MIC (Proteus vulgaris HX-19) [µg/mL]	also measured
[C-]#[N+]C12CC3(/C=C/C(=O)N[C@@H](CC(=O)OC)C(=O)OC)OC3C1O2 (stereo partly drawn) [Compound No. 27]	25 (≈ 74.3 µM)	100 (≈ 297 µM)	25 (≈ 74.3 µM)	50 (≈ 149 µM)	100 (≈ 297 µM)	50 (≈ 149 µM)	25 (≈ 74.3 µM)	100 (≈ 297 µM)	25 (≈ 74.3 µM)	25 (≈ 74.3 µM)	25 (≈ 74.3 µM)	25 (≈ 74.3 µM)	100 (≈ 297 µM)	> 200	> 200	> 200	25 (≈ 74.3 µM)	> 200	25 (≈ 74.3 µM)	12.5 (≈ 37.2 µM)	MIC [18]: > 200 µg/mL; MIC [19]: > 200 µg/mL; MIC (Enterobacter cloacae 963): > 200 µg/mL; MIC [20]: 12.5 µg/mL (≈ 37.2 µM); MIC [21]: 50 µg/mL (≈ 149 µM); MIC [22]: > 200 µg/mL; MIC [23]: > 100 µg/mL; MIC [24]: 100 µg/mL (≈ 297 µM); MIC [25]: > 100 µg/mL
[C-]#[N+]C12CC3(/C=C/C(=O)N[C@@H](CCC(=O)OCc4ccccc4)C(=O)OCc4ccccc4)OC3C1O2 (stereo partly drawn) [Compound No. 28]	12.5 (≈ 24.9 µM)	12.5 (≈ 24.9 µM)	12.5 (≈ 24.9 µM)	> 200	> 200	> 200	> 200	> 200	> 200	> 200	> 200	> 200	< 1.56	> 200	> 200	> 200	> 200	> 200	> 200	25 (≈ 49.7 µM)	MIC [18]: > 200 µg/mL; MIC [19]: > 200 µg/mL; MIC (Enterobacter cloacae 963): > 200 µg/mL; MIC [20]: < 1.56 µg/mL; MIC [21]: > 200 µg/mL; MIC [22]: 0.5 µg/mL (≈ 0.995 µM); MIC [23]: > 100 µg/mL; MIC [24]: > 100 µg/mL; MIC [25]: > 100 µg/mL
[C-]#[N+]C12CC3(/C=C/C(=O)N[C@@H](CC(=O)OCc4ccccc4)C(=O)OCc4ccccc4)OC3C1O2 (stereo partly drawn) [Compound No. 29]	< 1.56	6.25 (≈ 12.8 µM)	3.13 (≈ 6.41 µM)	> 200	> 200	> 200	> 200	> 200	> 200	> 200	> 200	> 200	25 (≈ 51.2 µM)	> 200	> 200	> 200	> 200	> 200	> 200	25 (≈ 51.2 µM)	MIC [18]: > 200 µg/mL; MIC [19]: > 200 µg/mL; MIC (Enterobacter cloacae 963): > 200 µg/mL; MIC [20]: < 1.56 µg/mL; MIC [21]: > 200 µg/mL; MIC [22]: 6.25 µg/mL (≈ 12.8 µM); MIC [23]: > 100 µg/mL; MIC [24]: > 100 µg/mL; MIC [25]: > 100 µg/mL
